Data: patent US10835513B2, “Methods and treatments for the learning and memory deficits associated with Noonan syndrome” (The Regents of the University of California, priority 2013, dated 2020)

How the values were obtained:
[1] = system: hippocampal slices of Ptpn11^D61G/+ mice; test: 5 TBS-induced LTP in hippocampal slices after systemic administrations of lovastatin; format: in vivo
Procedure: FIG. 6 are graphs showing that Lovastatin treatment reverses spatial learning and memory and LTP deficits in Ptpn11^D61G/+ mice. […] Left, Representative immunoblot showing p-Erk (upper) and total Erk (lower) levels in Ptpn11^D61G/+ mice and WT. Hippocampi were dissected 6 hr after the 4th day of lovastatin injection (subcutaneous (s.c.) injections, 10 mg/kg). Right, Bar graph displaying normalized p-Erk levels (mean±s.e.m.). n=7-8 per group. t-test, *P<0.05. […] Two-way ANOVA followed by Bonferroni post-test, WT/Veh vs. Ptpn11^D61G/+/Veh, *P<0.05, **P<0.01; Ptpn11^D61G/+/Veh vs. Ptpn11^D61G/+/Lova, +P<0.05. […]
For extracellular recordings of field excitatory postsynaptic potentials (fEPSP), sagittal slices (400 μm) were prepared with a vibratome (VT1000S, Leica) in ice-cold artificial cerebrospinal fluid (ACSF). […] Recording was performed in a submerged chamber perfused with ACSF (32° C.). fEPSPs were recorded with platinum-iridium electrodes placed in the CA1 stratum radiatum. […] Baseline responses were measured with stimulation (0.017 Hz, 0.1 ms pulse duration) at an intensity (typically 20-30 μA) that evoked a response that was approximately one third of the maximum evoked response. […] Initial fEPSP slopes were measured and normalized to the average of baseline (Clampfit 10.2).

Nf1^+/− mutant mice = conditions: previous study (ref. 21); cited from earlier work
Ptpn11^D61G/+ mice = test: Morris water maze (hidden platform) in Ptpn11^D61G/+ mice treated with lovastatin; format: in vivo
Procedure: (§1) FIG. 6 are graphs showing that Lovastatin treatment reverses spatial learning and memory and LTP deficits in Ptpn11^D61G/+ mice. […] Left, Representative immunoblot showing p-Erk (upper) and total Erk (lower) levels in Ptpn11^D61G/+ mice and WT. Hippocampi were dissected 6 hr after the 4th day of lovastatin injection (subcutaneous (s.c.) injections, 10 mg/kg). Right, Bar graph displaying normalized p-Erk levels (mean±s.e.m.). n=7-8 per group. t-test, *P<0.05. […] Two-way ANOVA followed by Bonferroni post-test, WT/Veh vs. Ptpn11^D61G/+/Veh, *P<0.05, **P<0.01; Ptpn11^D61G/+/Veh vs. Ptpn11^D61G/+/Lova, +P<0.05. […] Two-way ANOVA with genotype as between-subjects factor and drug treatment as within-subjects factor, effect of genotype: F(1, 45)=19.79, ***P<0.0001, interaction: F (1,45)=0.4489, P=0.506.
SL327 (Tocris) was dissolved in DMSO (16 mg/ml) and was injected intraperitoneally once daily, 30 min before the water maze experiment at a dose of 32 mg/kg. The volume of a single injection was under 80 μl. Lovastatin (Mevinolin, Sigma) was prepared as previously described^21. Briefly, lovastatin was dissolved in ethanol (final concentration of 8%) and 1N NaOH was added to convert mevinolin to the sodium salt. The pH of the final solution (4 mg/ml) was adjusted to 7.5 with HCl. The Vehicle solution was prepared with the same procedure. Lovastatin was administered daily (subcutaneous injection, 10 mg/kg) for 3 days before the first training day of the water maze and 6 hr before training every day thereafter.
In the hidden platform-version of Morris water maze, mice were trained with two blocks of 2 trials (ITI=1 min) spaced about 45 min apart. In each training trial, mice were released from a different starting position and then were allowed to search for the escape platform for 60 s. The platform was submerged 1 cm under the surface of the water. Once a mouse found the platform, it was left there for 15 s. […] Mice were trained for 5-7 consecutive days. Memory was assessed in probe trials that were given after completion of training as described in the main text. During the probe trial, the platform was removed and the mice were allowed to search for it for 60 s. Data were acquired and analyzed using WaterMaze software (Actimetrics).

Erk = test: p-Erk immunoblot of Ptpn11^D61G/+ hippocampi after lovastatin injection; format: in vivo, mice
Procedure: as §1
As in AAV-PTPN11^D61G-infected mice, p-Erk levels were increased in Ptpn11^D61G/+ hippocampi (FIG. 6, panel a). […] Importantly, the spatial learning performance of lovastatin-treated Ptpn11^D61G/+ mice was indistinguishable from controls (FIG. 6, panels d, e).
Dissected hippocampi were homogenized in protein lysis buffer (10 mM Tris-Cl pH 6.8, 1.6% SDS) containing protease and phosphatase inhibitor cocktails (Sigma). Supernatants were collected after centrifugation and the protein concentration was determined using a BCA assay kit (Thermo). […]

[2] = Ptpn11^D61G/+ mice, lovastatin 10 mg/kg s.c.

For CC[C@H](C)C(=O)O[C@H]1C[C@@H](C)C=C2C=C[C@H](C)[C@H](CC[C@@H]3C[C@@H](O)CC(=O)O3)[C@H]21 [Lovastatin], the “Average % fEPSP changes (last 10 minutes of recordings), 5 TBS-induced LTP” value ([1]; Ptpn11^D61G/+ mice) is given as 154.2±6.88%, the “Average % fEPSP changes (last 10 minutes of recordings), 5 TBS-induced LTP” value ([1]; WT mice) is given as 150.7±5.49% and the “spatial learning problems, attention deficits and pre-pulse inhibition deficits” value (Nf1^+/− mutant mice) is given as “can rescue”. For the same compound, the “proximity to the target platform, probe trial” value (Ptpn11^D61G/+ mice; [2]) was 39.82±2.53 cm, the “time in the target quadrant, probe trial” value (Ptpn11^D61G/+ mice; [2]) was 45.70±4.43% and the “latency to the hidden platform during training sessions” value (Ptpn11^D61G/+ mice; Ptpn11^D61G/+ mice, lovastatin 10 mg/kg s.c. daily) was “comparable latency to WT mice”. For the same compound, the “preference for the target quadrant, quadrant occupancy analysis” value (Ptpn11^D61G/+ mice; Ptpn11^D61G/+/Lova group, TQ vs. other quadrants) was “selectively searched for the target quadrant”, the “any measure of learning in WT animals” value (Ptpn11^D61G/+ mice; WT animals, lovastatin at the concentration used (10 mg/kg)) was “had no effect on any measure of learning” and the “proximity to the target platform, probe trial” value (Ptpn11^D61G/+ mice; WT mice, lovastatin 10 mg/kg s.c.) was 35.28±3.26 cm. For the same compound, the “normalized p-Erk levels in hippocampi” value (Erk; Ptpn11^D61G/+ hippocampi, 6 hr after the 4th day of lovastatin s.c. 10 mg/kg) was “reverses increased Erk activation” and the “Erk activation in hippocampi” value (Erk; WT controls, lovastatin s.c. 10 mg/kg) was “did not affect Erk activation in controls”.
